Laboratory results taken from patent US10071967B2, “N-cycloalkyl-N-{[2-(1-substitutedcycloalkyl)phenyl]methylene}-(thio)carboxamide derivatives” (BAYER CROPSCIENCE AKTIENGESELLSCHAFT, priority 2013, dated 2018).

Test: log P by HPLC on a reversed-phase column (C 18), EEC Directive 79/831 Annex V.A8
Format: physicochemical
Settings: for logP: 0.1% aqueous formic acid and acetonitrile
Protocol: In table 1, the log P values were determined in accordance with EEC Directive 79/831 Annex V.A8 by HPLC (High Performance Liquid Chromatography) on a reversed-phase column (C 18), using the method described below: Temperature: 40° C.; Mobile phases: 0.1% aqueous formic acid and acetonitrile; linear gradient from 10% acetonitrile to 90% acetonitrile. Calibration was carried out using unbranched alkan-2-ones (comprising 3 to 16 carbon atoms) with known log P values (determination of the log P values by the retention times using linear interpolation between two successive alkanones). lambda-max-values were determined using UV-spectra from 200 nm to 400 nm and the peak values of the chromatographic signals.

[1] = HPLC, reversed-phase column (C 18), 40° C., linear gradient 10% to 90% acetonitrile
[2] = HPLC reversed-phase C 18, 40° C., gradient 10% to 90% acetonitrile
[3] = Table 2, compounds of formula (I), HPLC C 18, 40° C.

| logP [1] | Compound | further results |
| --- | --- | --- |
| 4.61 | Cc1ccc(C2(C)CC2)c(CN(C(=O)c2c(C(F)(F)F)nn(C)c2F)C2CC2)c1 [Example 1.038] |  |
| 3.29 | Cc1ccc(C2(C(F)F)CC2)c(CN(C(=O)c2cn(C)nc2C(F)F)C2CC2)c1 [Example 1.138] |  |
| 4.19 | CCC1(c2ccc(C)cc2CN(C(=O)c2cn(C)nc2C(F)F)C2CC2)CC1 [Example 1.092] |  |
| 3.23 | COc1ccc(CN(C(=O)c2c(C)nn(C)c2F)C2CC2)c(C2(C)CC2)c1 [Example 1.018] |  |
| 3.31 | C#CC1(c2ccc(C)cc2CN(C(=O)c2cn(C)nc2C(F)F)C2CC2)CC1 [Example 1.064] |  |
| 3.99 | Cc1nn(C)c(F)c1C(=O)N(Cc1cc(Br)ccc1C1(C)CC1)C1CC1 [Example 1.027] |  |
| 3.52 | Cn1cc(C(=O)N(Cc2ccc(F)cc2C2(C)CC2)C2CC2)c(C(F)F)n1 [Example 1.013] |  |
| 3.73 | Cc1ccc(C2(C)CC2)c(CN(C(=O)c2c(C)nn(C)c2F)C2CC2)c1 [Example 1.040] |  |
| 3.99 | Cc1ccc(C2(C)CC2)c(CN(C(=O)c2c(C(F)F)nn(C)c2C)C2CC2)c1 [Example 1.036] |  |
| 5.08 | Cc1ccc(C2(C(C)C)CC2)c(CN(C(=O)c2nn(C)nc2C(F)F)C2CC2)c1 [Example 1.121] |  |
| 4.85 | Cc1ccc(C2(C)CC2)c(CN(C(=O)c2cc(C)oc2C)C2CC2)c1 [Example 1.047] |  |
| 4.77 | CCC1(c2ccc(C)cc2CN(C(=O)c2nn(C)nc2C(F)F)C2CC2)CC1 [Example 1.094] |  |
| 4.11 | CCC1(c2cc(C)ccc2CN(C(=O)c2c(C)nn(C)c2F)C2CC2)CC1 [Example 1.075] |  |
| 3.71 | CCOC1(c2ccc(C)cc2CN(C(=O)c2c(C)nn(C)c2Cl)C2CC2)CC1 [Example 1.131] |  |
| 4.14 | CCC1(c2ccc(C)cc2CN(C(=O)c2c(C)nn(C)c2F)C2CC2)CC1 [Example 1.093] |  |
| 4.62 | Cc1ccc(C2(C)CC2)c(CN(C(=O)c2cc(C)oc2C(F)F)C2CC2)c1 [Example 1.042] |  |
| 4.98 | Cc1ccc(C2(C(C)C)CC2)c(CN(C(=S)c2cn(C)nc2C(F)F)C2CC2)c1 [Example 1.125] |  |
| 4.97 | Cc1ccc(C2(CC(C)C)CC2)c(CN(C(=O)c2c(C)nn(C)c2F)C2CC2)c1 [Example 1.144] |  |
| 4.39 | Cn1cc(C(F)F)c(C(=O)N(Cc2cc(Br)ccc2C2(C)CC2)C2CC2)n1 [Example 1.025] |  |
| 4.37 | Cc1ccc(C2(C)CC2)c(CN(C(=O)c2nn(C)nc2C(F)F)C2CC2)c1 [Example 1.050] |  |
| 4.39 | Cc1ccc(C2(C)CC2)c(CN(C(=S)c2cn(C)nc2C(F)F)C2CC2)c1 [Example 1.052] |  |
| 4.56 | Cc1ccc(C2(C)CC2)c(CN(C(=O)c2nc(C)oc2C(F)F)C2CC2)c1 [Example 1.044] |  |
| 4.21 | CCOC1(c2ccc(C)cc2CN(C(=O)c2nn(C)nc2C(F)F)C2CC2)CC1 [Example 1.126] |  |
| 3.31 | COc1ccc(CN(C(=O)c2cn(C)nc2C(F)F)C2CC2)c(C2(C)CC2)c1 [Example 1.017] |  |

More lines, now with the values behind:

| Compound | logP [1] | further results |
| --- | --- | --- |
| Cc1cc(C(=O)N(Cc2cc(Br)ccc2C2(C)CC2)C2CC2)c(C)o1 [Example 1.028] | 5.08 |  |
| Cn1cc(C(=S)N(Cc2cc(F)ccc2C2(C(F)(F)F)CC2)C2CC2)c(C(F)F)n1 [Example 1.152] |  | logP [2]: 3.94 |
| Cc1nn(C)c(F)c1C(=O)N(Cc1cc(Cl)c(Cl)cc1C1(C)CC1)C1CC1 [Example 1.162] |  | logP [2]: 4.35 |
| Cc1ccc(C2(C)CC2)c(CN(C(=O)c2cc(C3CC3)oc2C)C2CC2)c1 [Example 1.045] | 5.22 |  |
| CCCC1(c2ccc(C)cc2CN(C(=O)c2cc(C)oc2C)C2CC2)CC1 [Example 1.115] | 5.62 |  |
| Cc1nn(C)cc1C(=S)N(Cc1cccc(F)c1C1(C)CC1)C1CC1 [Example 1.005] | 3.64 |  |
| Cn1cc(C(=O)N(Cc2cccc3c2C2(CCC3)CC2(Cl)Cl)C2CC2)c(C(F)F)n1 (racemic) [Ia.04] |  | logP [3]: 4.06 |
| CCC1(c2cc(Cl)ccc2CN(C(=O)c2cn(C)nc2C(F)F)C2CC2)CC1 [Example 1.070] | 4.25 |  |
| Cc1ccc(C2(C)CC2)c(CN(C(=S)c2sccc2I)C2CC2)c1 [Example 1.054] | 5.72 |  |
| CCC1(c2ccc(Cl)cc2CN(C(=O)c2cn(C)nc2C(F)F)C2CC2)CC1 [Example 1.086] | 4.18 |  |
| CCC1(c2ccccc2CN(C(=S)c2cn(C)nc2C(F)F)C2CC2)CC1 [Example 1.068] | 4.37 |  |
| COCC1(c2ccc(C)cc2CN(C(=O)c2cn(C)nc2C)C2CC2)CC1 [Example 1.157] |  | logP [2]: 2.61 |
| Cc1cc(C(=S)N(Cc2ccc(Cl)cc2C2(C)CC2)C2CC2)c(C)o1 [Example 1.012] | 5.65 |  |
| Cc1nn(C)cc1C(=O)N(Cc1cc(Cl)c(Cl)cc1C1(C)CC1)C1CC1 [Example 1.160] |  | logP [2]: 3.81 |
| 3-fluoro-2-(1-methylcyclopropyl)benzaldehyde [IV.14] |  | logP (Table 4, compounds of formula (IV), HPLC C 18, 40° C.): 3.13 |
| Cc1cc(C(=O)N(Cc2ccc(-c3ccccc3)cc2C2(C)CC2)C2CC2)c(C)o1 [Example 1.021] | 5.48 |  |
| CCC1(c2ccc(C)cc2CN(C(=O)c2cc(C)oc2C)C2CC2)CC1 [Example 1.097] | 5.14 |  |
| C=Cc1cc(C(=O)N(Cc2cc(C)ccc2C2(C)CC2)C2CC2)c(C)o1 [Example 1.049] | 5.00 |  |
| C#CC1(c2ccc(Cl)cc2CN(C(=O)c2cn(C)nc2C(F)F)C2CC2)CC1 [Example 1.063] | 3.39 |  |
| Cc1ccc(C2(C(F)F)CC2)c(CN(C(=S)c2cn(C)nc2C(F)F)C2CC2)c1 [Example 1.140] | 3.76 |  |
| Cn1cc(C(=O)N(Cc2cc(F)ccc2C2(C(F)F)CC2)C2CC2)c(C(F)F)n1 [I.137, N-cyclopropyl-3-(difluoromethyl)-N-{2-[1-(difluoromethyl)cyclopropyl]-5-fluorobenzyl}-1-methyl-1H-pyrazole-4-carboxamide] |  | chromatographic logP (reversed-phase C18 HPLC column, given in the preparation examples): 3.09 |
| Cc1nn(C)c(F)c1C(=O)N(Cc1ccc(Cl)cc1C1(CC(C)C)CC1)C1CC1 [Example 1.143] | 5.08 |  |
| Cc1ccc(C2(C(C)C)CC2)c(CN(C(=O)c2cc(C)oc2C)C2CC2)c1 [Example 1.118] | 5.65 |  |
| Cc1nn(C)c(F)c1C(=S)N(Cc1ccc(F)cc1C1(C)CC1)C1CC1 [Example 1.015] | 4.18 |  |
| Cn1cc(C(=O)N(Cc2cc(Cl)ccc2C2(C(F)(F)F)CC2)C2CC2)c(C(F)F)n1 [Example 1.147] | 3.78 |  |

| Compound | logP [1] | further results |
| --- | --- | --- |
| Cn1cc(C(=O)N(Cc2cc(F)c(F)cc2C2(C)CC2)C2CC2)c(C(F)F)n1 [Example 1.019] | 3.68 |  |
| Cn1cc(C(=O)N(Cc2cccc3c2C2(CCC3)CC2)C2CC2)c(C(F)F)n1 [Ia.02] |  | logP [3]: 3.73 |
| Cc1cc(C(=O)N(Cc2ccccc2C2(C(F)(F)F)CC2)C2CC2)c(C)o1 [Example 1.146] | 4.31 |  |
| Cc1cc(C(=O)N(Cc2cc(F)ccc2C2(C(F)(F)F)CC2)C2CC2)c(C)o1 [Example 1.151] |  | logP [2]: 4.44 |
| Cc1ccc(C2(C)CC2)c(CN(C(=O)c2sccc2I)C2CC2)c1 [Example 1.034] | 5.14 |  |
| CCC1(c2ccc(C)cc2CN(C(=O)c2cc(C)oc2C(F)F)C2CC2)CC1 [Example 1.095] | 5.22 |  |
| CCC1(c2cc(C)ccc2CN(C(=S)c2cn(C)nc2C(F)F)C2CC2)CC1 [Example 1.076] | 4.67 |  |
| CCC1(c2ccc(C)cc2CN(C(=S)c2cn(C)nc2C(F)F)C2CC2)CC1 [Example 1.099] | 4.69 |  |
| Cc1nn(C)c(F)c1C(=O)N(Cc1ccc2c(c1C1(C)CC1)OCO2)C1CC1 [Example 1.056] | 3.06 |  |
| CCCC1(c2cc(Cl)ccc2CN(C(=O)c2nn(C)nc2C(F)F)C2CC2)CC1 [Example 1.112] | 5.31 |  |
| CCC1(c2cc(Cl)ccc2CN(C(=O)c2c(C)nn(C)c2F)C2CC2)CC1 [Example 1.069] | 4.25 |  |
| COCC1(c2ccc(C)cc2CN(C(=O)c2c(C)nn(C)c2F)C2CC2)CC1 [Example 1.156] |  | logP [2]: 3.02 |
| Cc1nn(C)c(Cl)c1C(=O)N(Cc1cc(Cl)c(Cl)cc1C1(C)CC1)C1CC1 [Example 1.161] |  | logP [2]: 4.61 |
| COC1(c2ccccc2CN(C(=O)c2cn(C)nc2C(F)F)C2CC2)CC1 [Example 1.104] | 2.88 |  |
| CCC1(c2cccc(F)c2CN(C(=O)c2cn(C)nc2C(F)F)C2CC2)CC1 [Example 1.102] | 3.74 |  |
| CCOC1(c2ccc(C)cc2CN(C(=O)c2nn(C)cc2C(F)F)C2CC2)CC1 [Example 1.130] | 3.94 |  |
| Cn1cc(C(=O)N(Cc2cccc3c2C2(CC3)CC2)C2CC2)c(C(F)F)n1 [Ia.01] |  | logP [3]: 3.51 |
| Cn1cc(C(=O)N(Cc2cc(Br)ccc2C2(C(F)F)CC2)C2CC2)c(C(F)F)n1 [Example 1.134] | 3.44 |  |
| CCC1(c2cc(C)c(F)cc2CN(C(=O)c2cc(C)oc2C)C2CC2)CC1 [Example 1.083] | 5.34 |  |
| Cc1cc(C(=O)N(Cc2cc(Cl)c(Cl)cc2C2(C)CC2)C2CC2)c(C)o1 [Example 1.159] |  | logP [2]: 5.43 |
| Cn1cc(C(=O)N(Cc2c(Br)cccc2C2(C(F)F)CC2)C2CC2)c(C(F)F)n1 [Example 1.142] | 3.39 |  |
| Cn1nc(C(=O)N(Cc2ccc(-c3ccccc3)cc2C2(C)CC2)C2CC2)c(C(F)F)n1 [Example 1.022] | 5.00 |  |
| Cn1cc(C(=S)N(Cc2cc(Cl)ccc2C2(C)CC2)C2CC2)c(C(F)F)n1 [Example 1.031] | 4.37 |  |
| CCC1(c2ccc(Cl)cc2CN(C(=O)c2c(C)nn(C)c2F)C2CC2)CC1 [Example 1.087] | 4.23 |  |
